Measured values taken from US12077503B2, “Substituted cyclic amides and their use as herbicides” (FMC CORPORATION, priority 2015, dated 2024).

Key:
Format in all cases: in vivo
[1] = test system: ryegrass, Italian (Italian ryegrass, Lolium multiflorum); test: Test A preemergence; conditions: for Plant response rating, Ryegrass, Italian: 125 g ai/ha; for Ryegrass, Italian plant response rating (0 to 100 scale, 0 is no effect, 100 is complete control): 500 g ai/ha, visual injury approx. 10 d
Text: (§1) Seeds of plant species selected from barnyardgrass (Echinochloa crus-galli), Kochia (Kochia scoparia), ragweed (common ragweed, Ambrosia elatior), ryegrass, Italian (Italian ryegrass, Lolium multiflorum), crabgrass, large (Digitaria sanguinalis), giant foxtail (Setaria faberii), green foxtail (Setaria viridis), morningglory (Ipomoea spp.), pigweed (Amaranthus retroflexus), velvetleaf (Abutilon theophrasti), wheat (Triticum aestivum), and corn (Zea mays) were planted into a blend of loam soil and sand and treated preemergence with a directed soil spray using test chemicals formulated in anon-phytotoxic solvent mixture which included a surfactant.
(§2) At the same time, plants selected from these crop and weed species and also blackgrass (Alopecurus myosuroides), and Galium (catchweed bedstraw, Galium aparine) were planted in pots containing the same blend of loam soil and sand and treated with postemergence applications of test chemicals formulated in the same manner. Plants ranged in height from 2 to 10 cm and were in the one- to two-leaf stage for the postemergence treatment. Treated plants and untreated controls were maintained in a greenhouse for approximately 10 d, after which time all treated plants were compared to untreated controls and visually evaluated for injury. Plant response ratings, summarized in Table A, are based on a 0 to 100 scale where 0 is no effect and 100 is complete control. A dash (-) response means no test result.

[2] = test system: barnyardgrass (Echinochloa crus-galli); test: Test A preemergence; conditions: for Plant response rating, Barnyardgrass: 125 g ai/ha; for Barnyardgrass plant response rating (0 to 100 scale, 0 is no effect, 100 is complete control): 500 g ai/ha, visual injury approx. 10 d
Text: as §1, §2

Kochia (Kochia scoparia) [3] = test: Test A preemergence; conditions: for Plant response rating, Kochia: 125 g ai/ha; for Kochia plant response rating (0 to 100 scale, 0 is no effect, 100 is complete control): 500 g ai/ha, visual injury approx. 10 d
Text: as §1, §2

[4] = test system: giant foxtail (Setaria faberii); test: Test A preemergence; conditions: for Plant response rating, Foxtail, Giant: 125 g ai/ha; for Foxtail, Giant plant response rating (0 to 100 scale, 0 is no effect, 100 is complete control): 500 g ai/ha, visual injury approx. 10 d
Text: as §1, §2

[5] = test system: ragweed (common ragweed, Ambrosia elatior); test: Test A preemergence; conditions: for Plant response rating, Ragweed: 125 g ai/ha; for Ragweed plant response rating (0 to 100 scale, 0 is no effect, 100 is complete control): 500 g ai/ha, visual injury approx. 10 d
Text: as §1, §2

[6] = test system: pigweed (Amaranthus retroflexus); test: Test A preemergence; conditions: for Plant response rating, Pigweed: 125 g ai/ha; for Pigweed plant response rating (0 to 100 scale, 0 is no effect, 100 is complete control): 500 g ai/ha, visual injury approx. 10 d
Text: as §1, §2

[7] = test system: blackgrass (Alopecurus myosuroides); test: Test A postemergence; conditions: for Blackgrass plant response rating: 125 g ai/ha, visual injury rating on 0 to 100 scale (0 no effect, 100 complete control), approx. 10 d; for Plant response rating, Blackgrass: 500 g ai/ha
Text: as §1, §2

[8] = test system: ryegrass, Italian (Italian ryegrass, Lolium multiflorum); test: Test A postemergence
Text: as §1, §2

corn (Zea mays) = test: Test A postemergence
Text: as §1, §2

[9] = test system: barnyardgrass (Echinochloa crus-galli); test: Test A postemergence; conditions: for Barnyardgrass plant response rating: 125 g ai/ha, visual injury rating on 0 to 100 scale (0 no effect, 100 complete control), approx. 10 d; for Plant response rating, Barnyardgrass: 500 g ai/ha
Text: as §1, §2

Kochia (Kochia scoparia) [10] = test: Test A postemergence
Text: as §1, §2

[11] = test system: giant foxtail (Setaria faberii); test: Test A postemergence
Text: as §1, §2

[12] = test system: Galium (catchweed bedstraw, Galium aparine); test: Test A postemergence
Text: as §1, §2

[13] = test system: ragweed (common ragweed, Ambrosia elatior); test: Test A postemergence
Text: as §1, §2

[14] = test system: wheat (Triticum aestivum); test: Test A postemergence
Text: as §1, §2

[15] = test system: pigweed (Amaranthus retroflexus); test: Test A postemergence
Text: as §1, §2

[16] = test system: ducksalad (Heteranthera limosa); test: Test B flooded paddy test; conditions: Flood, 0 to 100 scale where 0 is no effect and 100 is complete control, 13 to 15 d
Method in brief: (§3)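 Visual ratings (0 none to 100 complete control) are relative to untreated plants, taken 13–15 d after treatment in a greenhouse. Test material went straight into floodwater standing 3 cm above the soil, kept constant, on plants at the 2-leaf stage.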

rice (Oryra sativa) = test: Test B flooded paddy test; conditions: Flood, 0 to 100 scale where 0 is no effect and 100 is complete control, 13 to 15 d
Method in brief: as §3

[17] = test system: sedge, umbrella (small-flower umbrella sedge, Cyperus difformis); test: Test B flooded paddy test; conditions: Flood, 0 to 100 scale where 0 is no effect and 100 is complete control, 13 to 15 d
Method in brief: as §3

[18] = test system: barnyardgrass (Echinochloa crus-galli); test: Test B flooded paddy test; conditions: Flood, 0 to 100 scale where 0 is no effect and 100 is complete control, 13 to 15 d
Method in brief: as §3

[19] = Preemergence, visual injury after approximately 10 d, 0 to 100 scale where 0 is no effect and 100 is complete control
[20] = Postemergence, 0 to 100 scale where 0 is no effect and 100 is complete control
[21] = 125 g ai/ha, postemergence, visual rating after approx. 10 d, 0 to 100 scale (0 no effect, 100 complete control)
[22] = Postemergence, 500 g ai/ha, 0 to 100 scale where 0 is no effect and 100 is complete control
[23] = preemergence, 0 to 100 scale (0 no effect, 100 complete control)
[24] = postemergence, 0 to 100 scale, 0 no effect, 100 complete control
[25] = 125 g ai/ha, postemergence, visual injury rating on 0 to 100 scale (0 no effect, 100 complete control), approx. 10 d
[26] = 500 g ai/ha, postemergence, 0 to 100 scale, 0 no effect, 100 complete control

O=C1NCC(c2ccc(Oc3ccccc3)cc2)C1C(=O)Nc1ccc(F)c(F)c1F (racemic) [Compound 537]
50: Plant response rating, Sedge, Umbrella ([17]; 500 g ai/ha)
0: Plant response rating, Ryegrass, Italian [1, 19] | Ryegrass, Italian plant response rating (0 to 100 scale, 0 is no effect, 100 is complete control) ([1]; Preemergence) | Plant response rating, Barnyardgrass [2, 19] | Barnyardgrass plant response rating (0 to 100 scale, 0 is no effect, 100 is complete control) ([2]; Preemergence) | Plant response rating, Kochia (Kochia (Kochia scoparia) [3]; [19]) | Kochia plant response rating (0 to 100 scale, 0 is no effect, 100 is complete control) (Kochia (Kochia scoparia) [3]; Preemergence) | Plant response rating, Foxtail, Giant [4, 19] | Foxtail, Giant plant response rating (0 to 100 scale, 0 is no effect, 100 is complete control) ([4]; Preemergence) | Plant response rating, Ragweed [5, 19] | Ragweed plant response rating (0 to 100 scale, 0 is no effect, 100 is complete control) ([5]; Preemergence) | Plant response rating, Pigweed [6, 19] | Pigweed plant response rating (0 to 100 scale, 0 is no effect, 100 is complete control) ([6]; Preemergence) | Blackgrass plant response rating ([7]; postemergence) | Plant response rating, Blackgrass [7, 20] | Plant response rating, Ryegrass, Italian [8, 21] | Plant response rating, Ryegrass, Italian [8, 22] | Plant response rating, Corn (corn (Zea mays); [21]) | Plant response rating, Corn (corn (Zea mays); [22]) | Barnyardgrass plant response rating ([9]; postemergence) | Plant response rating, Barnyardgrass [9, 20] | Plant response rating, Kochia (Kochia (Kochia scoparia) [10]; [21]) | Plant response rating, Kochia (Kochia (Kochia scoparia) [10]; [22]) | Plant response rating, Foxtail, Giant [11, 21] | Plant response rating, Foxtail, Giant [11, 22] | Plant response rating, Galium [12, 21] | Plant response rating, Galium [12, 22] | Plant response rating, Ragweed [13, 21] | Plant response rating, Ragweed [13, 22] | Plant response rating, Wheat [14, 21] | Plant response rating, Wheat [14, 22] | Plant response rating, Pigweed [15, 21] | Plant response rating, Pigweed [15, 22] | Plant response rating, Ducksalad ([16]; 500 g ai/ha)
20: Plant response rating, Rice (rice (Oryra sativa); 500 g ai/ha)
30: Plant response rating, Barnyardgrass ([18]; 500 g ai/ha)

Cc1cc(C2CN(C)C(=O)C2C(=O)Nc2ccccc2S(C)(=O)=O)ccc1F (stereo not drawn) [Compound 405]
90: Plant response rating, Barnyardgrass [2, 23] | Barnyardgrass plant response rating (0 to 100 scale, 0 is no effect, 100 is complete control) ([2]; Preemergence) | Plant response rating, Foxtail, Giant [4, 23] | Foxtail, Giant plant response rating (0 to 100 scale, 0 is no effect, 100 is complete control) ([4]; Preemergence) | Barnyardgrass plant response rating ([9]; postemergence) | Plant response rating, Barnyardgrass [9, 24]
20: Plant response rating, Ragweed [5, 23]
70: Kochia plant response rating (0 to 100 scale, 0 is no effect, 100 is complete control) (Kochia (Kochia scoparia) [3]; Preemergence) | Ragweed plant response rating (0 to 100 scale, 0 is no effect, 100 is complete control) ([5]; Preemergence) | Plant response rating, Barnyardgrass ([18]; 250 g ai/ha)
30: Ryegrass, Italian plant response rating (0 to 100 scale, 0 is no effect, 100 is complete control) ([1]; Preemergence) | Ryegrass, Italian plant response rating [8, 25] | Corn plant response rating (corn (Zea mays); [25])
40: Kochia plant response rating (Kochia (Kochia scoparia) [10]; [25]) | Pigweed plant response rating [15, 25]
85: Plant response rating, Ducksalad ([16]; 250 g ai/ha)
50: Plant response rating, Kochia (Kochia (Kochia scoparia) [3]; [23]) | Plant response rating, Pigweed [6, 23] | Blackgrass plant response rating ([7]; postemergence) | Plant response rating, Kochia (Kochia (Kochia scoparia) [10]; [26]) | Plant response rating, Ragweed [13, 26] | Plant response rating, Pigweed [15, 26]
60: Pigweed plant response rating (0 to 100 scale, 0 is no effect, 100 is complete control) ([6]; Preemergence) | Plant response rating, Blackgrass [7, 24] | Plant response rating, Ryegrass, Italian [8, 26] | Galium plant response rating [12, 25] | Plant response rating, Galium [12, 26] | Wheat plant response rating [14, 25]
0: Plant response rating, Ryegrass, Italian [1, 23] | Ragweed plant response rating [13, 25] | Plant response rating, Rice (rice (Oryra sativa); 250 g ai/ha) | Plant response rating, Sedge, Umbrella ([17]; 250 g ai/ha)
80: Plant response rating, Corn (corn (Zea mays); [26]) | Foxtail, Giant plant response rating [11, 25] | Plant response rating, Foxtail, Giant [11, 26] | Plant response rating, Wheat [14, 26]
